From US7674909B2, “Tetrahydroquinoline derivatives and their use as FSH receptor modulators” (N.V. Organon, priority 2002, dated 2010)

Target: T1, human FSH receptor (Homo sapiens, UniProt P23945)
T1 construct: expressed in transfected cells; host or cells: Chinese Hamster Ovary (CHO) cells, stably transfected, cotransfected with a CRE-luciferase reporter
T1 sequence (P23945 18-695): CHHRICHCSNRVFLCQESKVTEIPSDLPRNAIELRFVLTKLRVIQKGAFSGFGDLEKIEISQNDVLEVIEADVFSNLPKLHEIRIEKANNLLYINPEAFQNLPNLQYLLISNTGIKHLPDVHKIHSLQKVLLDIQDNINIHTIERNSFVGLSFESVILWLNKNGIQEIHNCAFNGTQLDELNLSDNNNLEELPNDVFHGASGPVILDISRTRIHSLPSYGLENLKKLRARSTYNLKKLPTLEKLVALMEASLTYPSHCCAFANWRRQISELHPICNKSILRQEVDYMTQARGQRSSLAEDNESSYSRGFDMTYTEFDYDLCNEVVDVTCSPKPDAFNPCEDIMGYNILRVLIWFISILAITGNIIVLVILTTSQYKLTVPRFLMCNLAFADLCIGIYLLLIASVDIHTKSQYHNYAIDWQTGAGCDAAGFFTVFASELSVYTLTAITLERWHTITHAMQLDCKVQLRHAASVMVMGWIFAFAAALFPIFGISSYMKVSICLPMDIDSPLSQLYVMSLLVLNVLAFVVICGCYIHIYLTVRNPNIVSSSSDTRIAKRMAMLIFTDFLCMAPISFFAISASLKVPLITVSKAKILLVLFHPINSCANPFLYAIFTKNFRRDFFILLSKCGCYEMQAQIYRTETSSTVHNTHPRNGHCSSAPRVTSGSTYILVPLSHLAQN
Test: CHO-FSH in vitro bioactivity (CRE-luciferase reporter, agonistic or antagonistic set-up)
Type: cell-based
Settings: CHO cells stably transfected with human FSH receptor and CRE/luciferase reporter; in either an agonistic or an antagonistic (rec-hFSH 10 mU/ml) assay set-up or both / in at least one of the assays; read-out: EC50 (IC50)
Procedure: FSH activity of compounds were tested in Chinese Hamster Ovary (CHO) cells stably transfected with the human FSH receptor and cotransfected with a cAMP responsive element (CRE)/promotor directing the expression of a firefly luciferase reporter gene. Binding of ligand to the Gs-coupled FSH receptor will result in an increase of cAMP, which in turn will induce an increased transactivation of the luciferase reporter construct. To test antagonistic properties recombinant FSH in a concentration that induces approximately 80% of the maximal stimulation of cAMP accumulation in the absence of test compound was added (rec-hFSH; 10 mU/ml). The luciferase signal was quantified using a luminescence counter. For test compounds, EC50 values (concentration of test compound causing half-maximal (50%) stimulation or reduction) were calculated. For that purpose the software program GraphPad PRISM, version 3.0 (GraphPad software Inc., San Diego) was used.

SMILES | EC50
CC(=O)N1c2ccc(NC(=O)c3ccc(-c4ccccc4)cc3)cc2C(C)(c2ccc(OCCCN3CCOCC3)cc2)CC1(C)C (stereo not drawn) [Example 3, Biphenyl-4-carboxylic acid {1-acetyl-2,2,4-trimethyl-4-[4-(3-morpholin-4-yl-propoxy)-phenyl]-1,2,3,4-tetrahydro-quinolin-6-yl}-amide] | < 100 nM
CC(=O)N1c2ccc(NC(=O)c3ccccc3)cc2C(C)(c2ccc(OCCN3CCOCC3)cc2)CC1(C)C (stereo not drawn) [Example 36, N-{1-Acetyl-2,2,4-trimethyl-4-[4-(2-morpholin-4-yl-ethoxy)-phenyl]-1,2,3,4-tetrahydro-quinolin-6-yl}-benzamide] | < 100 nM
CC(=O)N1c2ccc(NC(=O)c3ccc(C(C)(C)C)cc3)cc2C(C)(c2ccc(OCCN3CCOCC3)cc2)CC1(C)C (stereo not drawn) [Example 37, N-{1-Acetal-2,2,4-trimethyl-4-[4-(2-morpholin-4-ethoxy)-phenyl]-1,2,3,4-tetrahydro-quinolin-6-yl}-4-tert-butyl-benzamide] | < 100 nM
CC(=O)N1c2ccc(NC(=O)c3ccc(Br)cc3)cc2C(C)(c2ccc(OCCN3CCOCC3)cc2)CC1(C)C (stereo not drawn) [Example 39, N-{1-Acetyl-2,2,4-trimethyl-4-[4-(2-morpholin-4-yl-ethoxy)-phenyl]-1,2,3,4-tetrahydro-quinolin-6-yl}-4-bromo-benzamide] | < 100 nM
CC(=O)N1c2ccc(NC(=O)c3ccc(N(C)C)cc3)cc2C(C)(c2ccc(OCCN3CCOCC3)cc2)CC1(C)C (stereo not drawn) [Example 41, N-{1-Acetyl-2,2,4-trimethyl-4-[4-(2-morpholin-4-yl-ethoxy)-phenyl]-1,2,3,4-tetrahydro-quinolin-6-yl}-4-dimethylamino-benzamide] | < 100 nM
CC(=O)N1c2ccc(NC(=O)c3cccc(C(F)(F)F)c3)cc2C(C)(c2ccc(OCCN3CCOCC3)cc2)CC1(C)C (stereo not drawn) [Example 42, N-{1-Acetyl-2,2,4-trimethyl-4-[4-(2-morpholin-4-yl-ethoxy)-phenyl]-1,2,3,4-tetrahydro-quinolin-6-yl}-3-trifluoromethyl-benzamide] | < 100 nM

Further lines, results first:

EC50 | SMILES
< 100 nM | CC(=O)N1c2ccc(NC(=O)c3ccc(-c4ccccc4)cc3)cc2C(C)(c2ccc(OCc3ccccn3)cc2)CC1(C)C (stereo not drawn) [Example 4, Biphenyl-4-carboxylic acid {1-acetyl-2,2,4-trimethyl-4-[4-(pyridin-2-ylmethoxy)-phenyl]-1,2,3,4-tetrahydro-quinolin-6-yl}-amide]
< 100 nM | CC(=O)N1c2ccc(NC(=O)c3ccc(-c4ccccc4)cc3)cc2C(C)(c2ccc(OCc3ccncc3)cc2)CC1(C)C (stereo not drawn) [Example 7, Biphenyl-4-carboxylic acid {1-acetyl-2,2,4-trimethyl-4-[4-(pyridin-4-ylmethoxy)-phenyl]-1,2,3,4-tetrahydro-quinolin-6-yl}-amide]
< 100 nM | CC(=O)N1c2ccc(NC(=O)c3ccc(-c4ccccc4)cc3)cc2C(C)(c2ccc(OCC(=O)NCc3ccco3)cc2)CC1(C)C (stereo not drawn) [Example 16]
